Results as given in patent publication US11254640B2, “N-substituted indoles and other heterocycles for treating brain disorders” (The Regents of the University of California, priority 2019, dated 2022).
“Also recorded” adds a separate entry of the source.

System: 5HT2A sensor
Assay: 5HT2A sensor assay, agonist mode (sLight1.3s HEK293T stable line)
Assay type: cell-based
Details: 100 nM compound; percent relative to 5-HT at 100 uM
Procedure, shortened: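 Fluorescence change, dFF=(Fsat−Fapo)/Fapo, was taken from membrane images (460 nm excitation) before and after compound addition and scaled as % activation, with the DMSO mean as 0 and the 5HT mean as 100. The cells were sLight1.3s HEK293T in HBSS. Final compound levels were 100 μM, 10 μM and 100 nM in 0.1% DMSO, in triplicate.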

Compound	5HT2A Agonist mean @ 100 nM (%)
COc1cccc2c1ccn2CCN(C)C.O=C(O)/C=C/C(=O)O [Example 3, 2-(4-methoxy-1H-indol-1-yl)-N,N-dimethylethan-1-amine]	B (does not activate 5HT2A sensor assay in agonist mode)
COc1ccc2c(ccn2CCN(C)C)c1.O=C(O)/C=C/C(=O)O [Example 4, 2-(5-methoxy-1H-indol-1-yl)-N,N-dimethylethan-1-amine]	B (does not activate 5HT2A sensor assay in agonist mode)
COc1ccc2ccn(CCN(C)C)c2c1 [Example 5, 2-(6-methoxy-1H-indol-1-yl)-N,N-dimethylethan-1-amine]	B (does not activate 5HT2A sensor assay in agonist mode)
COc1cccc2ccn(CCN(C)C)c12.O=C(O)/C=C/C(=O)O [Example 6, 2-(7-methoxy-1H-indol-1-yl)-N,N-dimethylethan-1-amine]	B (does not activate 5HT2A sensor assay in agonist mode)
COc1ccc2c(ccn2C[C@@H](C)N(C)C)c1 [Example 59, (R)-1-(5-methoxy-1H-indol-1-yl)-N,N-dimethylpropan-2-amine]	B (does not activate 5HT2A sensor assay in agonist mode)
C[C@H](Cn1ccc2cc(F)ccc21)N(C)C [Example 60, (R)-1-(5-fluoro-1H-indol-1-yl)-N,N-dimethylpropan-2-amine]	B (does not activate 5HT2A sensor assay in agonist mode)

Same assay, conditions: 10 μM compound; percent relative to 5-HT at 100 uM

Compound	5HT2A Agonist mean @ 10 μM (%)
COc1cccc2c1ccn2CCN(C)C.O=C(O)/C=C/C(=O)O [Example 3, 2-(4-methoxy-1H-indol-1-yl)-N,N-dimethylethan-1-amine]	B (does not activate 5HT2A sensor assay in agonist mode)
COc1ccc2c(ccn2CCN(C)C)c1.O=C(O)/C=C/C(=O)O [Example 4, 2-(5-methoxy-1H-indol-1-yl)-N,N-dimethylethan-1-amine]	B (does not activate 5HT2A sensor assay in agonist mode)
COc1ccc2ccn(CCN(C)C)c2c1 [Example 5, 2-(6-methoxy-1H-indol-1-yl)-N,N-dimethylethan-1-amine]	B (does not activate 5HT2A sensor assay in agonist mode)
COc1cccc2ccn(CCN(C)C)c12.O=C(O)/C=C/C(=O)O [Example 6, 2-(7-methoxy-1H-indol-1-yl)-N,N-dimethylethan-1-amine]	B (does not activate 5HT2A sensor assay in agonist mode)
COc1ccc2c(ccn2C[C@@H](C)N(C)C)c1 [Example 59, (R)-1-(5-methoxy-1H-indol-1-yl)-N,N-dimethylpropan-2-amine]	B (does not activate 5HT2A sensor assay in agonist mode)
C[C@H](Cn1ccc2cc(F)ccc21)N(C)C [Example 60, (R)-1-(5-fluoro-1H-indol-1-yl)-N,N-dimethylpropan-2-amine]	B (does not activate 5HT2A sensor assay in agonist mode)

Same assay, conditions: 100 μM compound; percent relative to 5-HT at 100 uM

Compound	5HT2A Agonist mean @ 100 μM (%)
COc1cccc2c1ccn2CCN(C)C.O=C(O)/C=C/C(=O)O [Example 3, 2-(4-methoxy-1H-indol-1-yl)-N,N-dimethylethan-1-amine]	B (does not activate 5HT2A sensor assay in agonist mode)
COc1ccc2c(ccn2CCN(C)C)c1.O=C(O)/C=C/C(=O)O [Example 4, 2-(5-methoxy-1H-indol-1-yl)-N,N-dimethylethan-1-amine]	A (activates 5HT2A sensor assay in agonist mode)
COc1ccc2ccn(CCN(C)C)c2c1 [Example 5, 2-(6-methoxy-1H-indol-1-yl)-N,N-dimethylethan-1-amine]	A (activates 5HT2A sensor assay in agonist mode)
COc1cccc2ccn(CCN(C)C)c12.O=C(O)/C=C/C(=O)O [Example 6, 2-(7-methoxy-1H-indol-1-yl)-N,N-dimethylethan-1-amine]	B (does not activate 5HT2A sensor assay in agonist mode)
COc1ccc2c(ccn2C[C@@H](C)N(C)C)c1 [Example 59, (R)-1-(5-methoxy-1H-indol-1-yl)-N,N-dimethylpropan-2-amine]	B (does not activate 5HT2A sensor assay in agonist mode)
C[C@H](Cn1ccc2cc(F)ccc21)N(C)C [Example 60, (R)-1-(5-fluoro-1H-indol-1-yl)-N,N-dimethylpropan-2-amine]	A (activates 5HT2A sensor assay in agonist mode)

System: C57BL/6J mice
Assay: Head twitch response (HTR) assay
Assay type: in vivo, mouse
Details: intraperitoneal injection, head-twitches over 20 mins (FIG. 8, FIG. 9)
Description: Animals. For the dendritogenesis experiments, timed pregnant Sprague Dawley rats were obtained from Charles River Laboratories (Wilmington, Mass.). For the head-twitch response assay, male and female C57BL/6J mice were obtained from Jackson Laboratory (Sacramento, Calif.). Mice were housed in a temperature and humidity-controlled room maintained on a 12-h light/dark cycle in groups of 4-5 (same sex). Animals weighed between 17 and 30 g at the time of the experiments. All experimental procedures involving rodents were approved by the UC Davis Institutional Animal Care and Use Committee (IACUC) and adhered to principles described in the National Institutes of Health Guide for the Care and Use of Laboratory Animals. The University of California, Davis and the University of California, San Francisco are accredited by the Association for Assessment and Accreditation of Laboratory Animal Care International (AAALAC).
Head twitch response experiments. Mice (9-10 weeks old) were injected intraperitoneally with compound (injection volume 5 ml/kg), placed in an empty cage, and filmed for 20 minutes. Cages were cleaned with 70% ethanol between experiments.

Compound	head-twitch response (hallucinogenic potential)
COc1ccc2c(ccn2CCN(C)C)c1.O=C(O)/C=C/C(=O)O [Example 4, 2-(5-methoxy-1H-indol-1-yl)-N,N-dimethylethan-1-amine]	low hallucinogenic potential; also recorded: did not produce any HTR
COc1ccc2ccn(CCN(C)C)c2c1 [Example 5, 2-(6-methoxy-1H-indol-1-yl)-N,N-dimethylethan-1-amine]	significantly less potent
COc1ccc2c(ccn2C[C@@H](C)N(C)C)c1 [Example 59, (R)-1-(5-methoxy-1H-indol-1-yl)-N,N-dimethylpropan-2-amine]	did not produce any HTR
C[C@H](Cn1ccc2cc(F)ccc21)N(C)C [Example 60, (R)-1-(5-fluoro-1H-indol-1-yl)-N,N-dimethylpropan-2-amine]	did not produce any HTR

System: not given
Assay: not given
Details: not given

Compound	melting point
COc1cccc2c1ccn2CCN(C)C.O=C(O)/C=C/C(=O)O [Example 3, 2-(4-methoxy-1H-indol-1-yl)-N,N-dimethylethan-1-amine]	140 to 145 °C
COc1ccc2c(ccn2CCN(C)C)c1.O=C(O)/C=C/C(=O)O [Example 4, 2-(5-methoxy-1H-indol-1-yl)-N,N-dimethylethan-1-amine]	140 to 142 °C
COc1cccc2ccn(CCN(C)C)c12.O=C(O)/C=C/C(=O)O [Example 6, 2-(7-methoxy-1H-indol-1-yl)-N,N-dimethylethan-1-amine]	120 to 123 °C
